Assay results reported in patent US20080293699A1, “Inhibitors of thapsigargin-induced cell death” (priority 2007, published 2008).
Entries after “also recorded” stand apart in the source; their conditions may differ.

What was measured:
Assay type in all cases: cell-based, rat
ATF6 = ATF6 proteolytic processing (immunoblotting); conditions: immunoblotting to detect cleaved form; listed as CID-2878746
Excerpt: (§1) After confirming the pathway selectivity of compounds, additional downstream assays can be performed to map the specific signal transduction pathway inhibited by the compounds. In this regard, various antibody reagents are commercially available for assessing the status of the three major pathways known to be activated by ER stress: (1) PERK, (2) Ire1, and (3) ATF6 (Xu et al., J. Clinical Invest., 115:2656-2664, 2005). Immunoblotting experiments can be performed to assess the expression or phosphorylation (using phospho-specific antibodies) of marker proteins in these pathways. […] Cell lysates were prepared and analyzed by SDS-PAGE/immunoblotting using antibodies specific for phospho-c-Jun, phospho-eIF2α, phospho-p38 MAPK, and tubulin (a loading control). […] After two hrs, cell lysates were prepared, normalized for protein content, and either analyzed by SDS-PAGE/immunoblotting using anti-p38-MAPK pan-reactive antibody or phospho-specific antibody with ECL-based detection, followed by densitometry analysis of x-ray films, normalizing phosphor-p38 MAPK relative to total p38 MAPK, or analyzed using a meso-scale instrument from MSD and a procedure in which total p38 MAPK is captured on plates, and the relative amounts of phosphorylated protein were determined using phospho-specific antibody (MSD catalog #K15112D1). […]

CSM14.1 cells = assay: Pathway selectivity: cell death induced by VP16, TNF plus cycloheximide or staurosporine in CSM14.1 cells; conditions: 25 μM, ATP content where stated
Description: The selectivity of compounds with respect to suppression of cell death induced by ER stress was determined by treating undifferentiated CSM14.1 cells with a variety of agents that induce apoptosis via the ER stress pathway (thapsigargin, tunicamycin), the mitochondrial pathway (VP16) or the death receptor pathway (TNF+cycloheximide [CHX]). Of the 26 hit compounds tested, 19 reduced cell death induced by thapsigargin and tunicamycin but not VP16 or TNF/CHX.
For the experiments shown in FIG. 18, undifferentiated CSM 14.1 cells were plated at 3,000 cells per well in 96-well plates (for the ATP assay) or at 1×10^4 cells per well in 24-well plates (for flow cytometry). The next day, cells were treated with DMSO (0.5%) or hit compounds 25 μM of a compound with 0.5% DMSO final concentration) for two hours, followed by treatment with various cell death-inducing reagents, including 15 μM Thapsigargin (TG) for 24 hrs, 10 μg/mL tunicamycin (TU) for 72 hrs, 2.5 μM staurosporine (STS) for 24 hrs, 50 μM VP16 for 48 hrs, or 30 ng/mL TNF plus 10 μg/mL cyclohexamide (CHX) for 24 hrs. Cellular ATP content was measured for staurosporine samples and TNF/CHX samples, normalizing data relative to cells treated with DMSO alone (the control) and presenting as a percentage of control. For measuring cell death resulting from treatment with tunicamycin and VP16, flow cytometry was used. All assays were performed in triplicate (mean ±SD).

phospho-p38 MAPK = assay: Thapsigargin-induced p38 MAPK phosphorylation in CSM14.1 cells (immunoblotting and MSD assay)
Excerpt: as §1

CCN(CC)c1ccc(C2Nc3ccccc3NC3=C2C(=O)CC(c2ccccc2)C3)cc1 (stereo not drawn) [Compound 5962123, 6-(4-diethylaminophenyl)-9-phenyl-5,6,8,9,10,11-hexahydrobenzo[c][1,5]benzodiazepin-7-one]
ATF6 proteolytic processing (ATF6): not inhibited | Inhibition of cell death induced by TNF-α plus cycloheximide (CSM14.1 cells): does not inhibit; also recorded: not active | Inhibition of cell death induced by VP-16 (CSM14.1 cells): does not inhibit; also recorded: not active | Inhibition of cell death induced by staurosporine (CSM14.1 cells): does not inhibit; also recorded: not active | Thapsigargin-induced phosphorylation of p38MAPK (phospho-p38 MAPK; CSM14.1, immunoblotting and MSD assay, 10 μM, 25 μM hits): inhibits | IC50 (phospho-p38 MAPK; quantitative ELISA-methods, thapsigargin-treated CSM14.1, estimated, read-out: IC50 for p38MAPK phosphorylation): < 5 µM
